Experiments:
[1] = sensitivity to light (UV and sunlight); type: physicochemical
[2] = tested on: 4th instar larvae of Spilarctia Obliqua; assay: feeding deterrency (antifeedant) bioassay, diet-mix method, fecal pellet count; type: in vivo; details: for % feeding deterrency: artificial diet, after 24 hours; for antifeedant activity: result in words, bioassay studies
Procedure: (§1) The compound having formula (1) was evaluated as feeding deterrent and growth inhibitor against 4th in star larvae of spilarctia obliqua (Bihar hairy caterpillar). This insect attacks more than twenty cash crops like urd, moong, arhar, mint and coleus etc. Several synthetic insecticides like quinalphos, Phosphamidon and synthetic pyrethroids are commercially used to manage this insect pest. But, the insect is developing resistance towards some of these insecticides. Therefore, it has now become imperative to search for new ecologically safe, environmentally sound and non-toxic chemicals to manage this pest.
(§2) With compound having formula (1) insect feeding deterrency and growth inhibition was tested by diet-mix method. In this method, 4-(p-methoxyphenyl)-2-aminobutane,the compound having formula (1) was dissolved in acetone to make various concentrations ranging from 1000 to 5000 ppm. Test solution was mixed in the artificial diet of the insect so that each gram of diet contained 60-300 µg of the compound (1). 4th in star larva (newly molted) starved four hours, was weighed and released on treated artificial diet in thirty replications. In control, only solvent acetone was mixed and azadirachtin at 1000 ppm concentration was taken as standard for feeding bioassay. After 24 hours, number of fecal pellets produced were counted, and the data were analyzed for % feeding deterrency. Some experiments were continued for next 24 hours and weights of the larva were taken daily. After 3 days, experiment was discontinued and weight gain or loss was analyzed for % growth inhibition.

[3] = tested on: 4th instar larvae of Spilarctia Obliqua; assay: growth inhibition assay, diet-mix method, larval weight gain or loss; type: in vivo; details: for growth inhibition: result in words, bioassay studies
Procedure: as §1, §2
Diflubenzuron at 5 ppm was taken as a standard in case of growth inhibitory assay. The test result of compound having formula (1) in terms of its feeding deterrency and growth inhibition as compared to standards azadirachtin and diflubenzuron are given in table 1.

[4] = Spilarctia obliqua, 72 h, read-out: % growth inhibition

In the case of `C/C=C(\C)C(=O)O[C@H]1C[C@@H](OC(C)=O)[C@@]2(C(=O)OC)CO[C@H]3[C@@H](O)[C@@](C)([C@]45O[C@@]4(C)[C@H]4C[C@@H]5O[C@@H]5OC=C[C@@]54O)[C@H]4[C@]1(CO[C@]4(O)C(=O)OC)[C@@H]32` [Azadirachtin, reference compound], the sensitivity to light [1] was “photosensitive” and the “% feeding deterrency” value ([2]; 1000 ppm) was 100.0%.
With `CC(O)CCc1ccc(O)cc1` (stereo not drawn) [compound (2), 4-(p-hydroxyphenyl)-butan-2-ol] the growth inhibition [3] was “not found to be active” and the antifeedant activity [2] was “not found to be active”.
For `O=C(NC(=O)c1c(F)cccc1F)Nc1ccc(Cl)cc1` [Diflubenzuron, reference compound], the inhibition at 5 ppm ([3]; Spilarctia obliqua, 72 h, 5 ppm, artificial diet, after 3 days) was 100%.
Compound `COc1ccc(CCC(C)N)cc1` (stereo not drawn) [Compound 1, 4-(p-methoxyphenyl)-2-amino-butane] has an inhibition at 1000 ppm [3, 4] of 48%, an inhibition at 2000 ppm [3, 4] of 59% and an inhibition at 3000 ppm [3, 4] of 72%. For the same compound, the inhibition at 4000 ppm [3, 4] was 100%, the inhibition at 5000 ppm [3, 4] was 128% and the growth inhibition [3] was “significant activity”. The sensitivity to light [1] was “not sensitive to light”, the “% feeding deterrency” value ([2]; 1000 ppm) was 32.0% and the “% feeding deterrency” value ([2]; 2000 ppm) was 40.0%. The “% feeding deterrency” value ([2]; 3000 ppm) was 64.0%, the “% feeding deterrency” value ([2]; 4000 ppm) was 82.0% and the “% feeding deterrency” value ([2]; 5000 ppm) was 100.0%. For the same compound, the antifeedant activity [2] was “significant activity”.

From patent EP1138666B1, “A preparation method for 4-(P-methoxyphenyl)-2-amino-butane and an insecticidal composition comprising it” (Council of Scientific and Industrial Research, priority 2000, dated 2001)
